# Source: ChEMBL document CHEMBL1127074, “Novel hypotensive agents from Verbesina caracasana. 2. Synthesis and pharmacology of caracasanamide” (1993)
# Where “and” joins values, the source holds several entries; their conditions need not be identical. Equal values may be shown once.
# Legend:
# Rattus norvegicus [1] = experiment: Change in heart rate administered at 3200 ug/kg iv in anesthetized rats in presence of phentolamine (2 mg/kg); type: functional
# Rattus norvegicus [2] = experiment: Tested for the change in diastolic blood pressure administered at 800 ug/kg iv in anesthetized rats in presence of propranolol (3 mg/kg); type: functional, Artery
# Rattus norvegicus [3] = experiment: Tested for the change in diastolic blood pressure administered at 6400 ug/kg iv in anesthetized rats in presence of propranolol (3 mg/kg); type: functional, Artery
# Rattus norvegicus [4] = experiment: Maximum rate of rise of the left ventricular isovolumetric pressure (dP/dt) administered at 6400 ug/kg iv in anesthetized rats; type: functional, Heart left ventricle
# Rattus norvegicus [5] = experiment: Tested for the change in systolic blood pressure administered at 100 ug/kg intravenously in anesthetized rats in presence of spinalization under vagotomy; type: functional, Artery
# Rattus norvegicus [6] = experiment: Tested for the change in diastolic blood pressure administered at 6400 ug/kg iv in anesthetized rats in presence of hexamethonium (5 mg/kg) (p<0.05); type: functional, Artery
# Rattus norvegicus [7] = experiment: Change in respiratory frequency administered at 200 ug/kg iv in anesthetized rats; type: functional
# Rattus norvegicus [8] = experiment: Tested for the change in diastolic blood pressure administered at 50 ug/kg intravenously in anesthetized rats; type: functional, Artery
# Rattus norvegicus [9] = experiment: Tested for the change in systolic blood pressure administered at 3200 ug/kg intravenously in anesthetized rats in presence of hexamethonium (5 mg/kg) (p<0.05); type: functional, Artery
# Rattus norvegicus [10] = experiment: Change in respiratory frequency administered at 100 ug/kg iv in anesthetized rats; type: functional
# Rattus norvegicus [11] = experiment: Change in heart rate administered at 3200 ug/kg iv in anesthetized rats in presence of spinalization under vagotomy (p<0.05); type: functional
# Rattus norvegicus [12] = experiment: Maximum rate of rise of the left ventricular isovolumetric pressure (dP/dt) administered at 100 ug/kg iv in anesthetized rats; type: functional, Heart left ventricle
# Rattus norvegicus [13] = experiment: Tested for the change in systolic blood pressure administered at 100 ug/kg iv in anesthetized rats in presence of spinalization under vagotomy; type: functional, Artery
# Rattus norvegicus [14] = experiment: Tested for the change in systolic blood pressure administered at 3200 ug/kg intravenously in anesthetized rats in presence of propranolol (3 mg/kg); type: functional, Artery
# Rattus norvegicus [15] = experiment: Maximum rate of rise of the left ventricular isovolumetric pressure administered at 1600 ug/kg iv in anesthetized rats in presence of hexamethonium (5 mg/kg) (p<0.05); type: functional, Heart left ventricle
# Rattus norvegicus [16] = experiment: Tested for the change in diastolic blood pressure administered at 1600 ug/kg iv in anesthetized rats in presence of propranolol (3 mg/kg); type: functional, Artery
# Rattus norvegicus [17] = experiment: Tested for change in diastolic blood pressure administered at 4.12 uM/kg iv in anesthetized rats; type: functional, Artery
# Rattus norvegicus [18] = experiment: Tested for the change in systolic blood pressure administered at 800 ug/kg intravenously in anesthetized rats; type: functional, Artery
# Rattus norvegicus [19] = experiment: Maximum rate of rise of the left ventricular isovolumetric pressure (dP/dt) administered at 3200 ug/kg iv in anesthetized rats; type: functional, Heart left ventricle
# Rattus norvegicus [20] = experiment: Change in heart rate administered at 6400 ug/kg iv in anesthetized rats in presence of hexamethonium (5 mg/kg) (p<0.05); type: functional
# Rattus norvegicus [21] = experiment: Maximum rate of rise of the left ventricular isovolumetric pressure (dP/dt) administered at 800 ug/kg iv in anesthetized rats; type: functional, Heart left ventricle
# Rattus norvegicus [22] = experiment: Tested for the change in systolic blood pressure administered at 1600 ug/kg intravenously in anesthetized rats in presence of propranolol (3 mg/kg); type: functional, Artery
# Rattus norvegicus [23] = experiment: Tested for change in systolic blood pressure administered at 4.12 uM/kg iv in anesthetized rats; type: functional, Artery
# Rattus norvegicus [24] = experiment: Tested for the change in systolic blood pressure administered at 800 ug/kg intravenously in anesthetized rats in presence of hexamethonium (5 mg/kg) (p<0.05); type: functional, Artery
# Rattus norvegicus [25] = experiment: Tested for the change in diastolic blood pressure administered at 1600 ug/kg iv in anesthetized rats in presence of hexamethonium (5 mg/kg) (p<0.05); type: functional, Artery
# Rattus norvegicus [26] = experiment: Tested for the change in diastolic blood pressure administered at 100 ug/kg intravenously in anesthetized rats; type: functional, Artery
# Rattus norvegicus [27] = experiment: Maximum rate of rise of the left ventricular isovolumetric pressure administered at 800 ug/kg iv in anesthetized rats in presence of hexamethonium (5 mg/kg) (p<0.05); type: functional, Heart left ventricle
# Rattus norvegicus [28] = experiment: Change in heart rate administered at 800 ug/kg iv in anesthetized rats in presence of propranolol (3 mg/kg) (p<0.05); type: functional
# Rattus norvegicus [29] = experiment: Tested for the change in diastolic blood pressure administered at 200 ug/kg intravenously in anesthetized rats; type: functional, Artery
# Rattus norvegicus [30] = experiment: Tested for the change in diastolic blood pressure administered at 6400 ug/kg intravenously in anesthetized rats; type: functional, Artery
# Rattus norvegicus [31] = experiment: Tested for the change in diastolic blood pressure administered at 1600 ug/kg intravenously in anesthetized rats; type: functional, Artery
# Rattus norvegicus [32] = experiment: Tested for the change in systolic blood pressure administered at 3200 ug/kg intravenously in anesthetized rats in presence of phentolamine (2 mg/kg); type: functional, Artery
# Rattus norvegicus [33] = experiment: Tested for the change in diastolic blood pressure administered at 800 ug/kg iv in anesthetized rats in presence of phentolamine (2 mg/kg); type: functional, Artery
# Rattus norvegicus [34] = experiment: Maximum rate of rise of the left ventricular isovolumetric pressure administered at 800 ug/kg iv in anesthetized rats in presence of […] (3 mg/kg) (p<0.05); type: functional, Heart left ventricle
# Rattus norvegicus [35] = experiment: Tested for the change in diastolic blood pressure administered at 3200 ug/kg iv in anesthetized rats in presence of hexamethonium (5 mg/kg) (p<0.05); type: functional, Artery
# Rattus norvegicus [36] = experiment: Change in heart rate administered at 800 ug/kg iv in anesthetized rats in presence of hexamethonium (5 mg/kg) (p<0.05); type: functional
# Rattus norvegicus [37] = experiment: Maximum rate of rise of the left ventricular isovolumetric pressure (dP/dt) administered at 200 ug/kg iv in anesthetized rats; type: functional, Heart left ventricle
# Rattus norvegicus [38] = experiment: Change in heart rate administered at 200 ug/kg iv in anesthetized rats in presence of spinalization under vagotomy; type: functional
# Rattus norvegicus [39] = experiment: Tested for the change in systolic blood pressure administered at 3200 ug/kg intravenously in anesthetized rats; type: functional, Artery
# Rattus norvegicus [40] = experiment: Tested for the change in diastolic blood pressure administered at 800 ug/kg iv in anesthetized rats in presence of hexamethonium (5 mg/kg) (p<0.05); type: functional, Artery
# Rattus norvegicus [41] = experiment: Maximum rate of rise of the left ventricular isovolumetric pressure administered at 1600 ug/kg iv in anesthetized rats in presence of […] (3 mg/kg) (p<0.05); type: functional, Heart left ventricle
# Rattus norvegicus [42] = experiment: Tested for the change in diastolic blood pressure administered at 3200 ug/kg intravenously in anesthetized rats; type: functional, Artery
# Rattus norvegicus [43] = experiment: Maximum rate of rise of the left ventricular isovolumetric pressure (dP/dt) administered at 50 ug/kg iv in anesthetized rats; type: functional, Heart left ventricle
compound,measurement,setting,value
COc1ccc(/C=C/C(=O)NCCCC/N=C(\N)NCC=C(C)C)cc1OC,Heart rate,Rattus norvegicus [1],24 beats min-1
same,Blood pressure,Rattus norvegicus [2],-13 mmHg
same,Blood pressure,Rattus norvegicus [3],-28 mmHg
same,BP,Rattus norvegicus [4],58%
same,dp/dt,Rattus norvegicus [4],3074 mmHg s-1
same,Blood pressure,Rattus norvegicus [5],0 mmHg
same,Blood pressure,Rattus norvegicus [6],-20 mmHg
same,Frequency,Rattus norvegicus [7],12 beats min-1 and 12%
same,Blood pressure,Rattus norvegicus [8],-5 mmHg and -8%
same,Blood pressure,Rattus norvegicus [9],-11 mmHg
same,Frequency,Rattus norvegicus [10],9 beats min-1 and 8%
same,Heart rate,Rattus norvegicus [11],3 beats min-1
same,BP,Rattus norvegicus [12],3%
same,dp/dt,Rattus norvegicus [12],141 mmHg s-1
same,Blood pressure,Rattus norvegicus [13],0 mmHg
same,Blood pressure,Rattus norvegicus [14],-30 mmHg
same,dp/dt,Rattus norvegicus [15],1008 mmHg s-1
same,Blood pressure,Rattus norvegicus [16],-20 mmHg
same,Blood pressure,Rattus norvegicus [17],-18 mmHg
same,Blood pressure,Rattus norvegicus [18],-17 mmHg and -21%
same,BP,Rattus norvegicus [19],55%
same,dp/dt,Rattus norvegicus [19],2984 mmHg s-1
same,Heart rate,Rattus norvegicus [20],12 beats min-1
same,BP,Rattus norvegicus [21],41%
same,dp/dt,Rattus norvegicus [21],2140 mmHg s-1
same,Blood pressure,Rattus norvegicus [22],-25 mmHg
same,Blood pressure,Rattus norvegicus [23],-21 mmHg
same,Blood pressure,Rattus norvegicus [24],-5 mmHg
same,Blood pressure,Rattus norvegicus [25],-9 mmHg
same,Blood pressure,Rattus norvegicus [26],-6 mmHg and -9%
same,dp/dt,Rattus norvegicus [27],890 mmHg s-1
same,Heart rate,Rattus norvegicus [28],6 beats min-1
same,Blood pressure,Rattus norvegicus [29],-10 mmHg and -16%
same,Blood pressure,Rattus norvegicus [30],-31 mmHg and -48%
same,Blood pressure,Rattus norvegicus [31],-18 mmHg and -29%
same,Blood pressure,Rattus norvegicus [32],-37 mmHg
same,Blood pressure,Rattus norvegicus [33],-19 mmHg
same,dp/dt,Rattus norvegicus [34],415 mmHg s-1
same,Blood pressure,Rattus norvegicus [35],-17 mmHg
same,Heart rate,Rattus norvegicus [36],5 beats min-1
same,BP,Rattus norvegicus [37],25%
same,dp/dt,Rattus norvegicus [37],1284 mmHg s-1
same,Heart rate,Rattus norvegicus [38],0 beats min-1
same,Blood pressure,Rattus norvegicus [39],-25 mmHg and -29%
same,Blood pressure,Rattus norvegicus [40],-6 mmHg
same,dp/dt,Rattus norvegicus [41],520 mmHg s-1
same,Blood pressure,Rattus norvegicus [42],-29 mmHg and -47%
same,BP,Rattus norvegicus [43],1%
same,dp/dt,Rattus norvegicus [43],52 mmHg s-1
